Measurements from patent publication US7291627B2, “Dihydroimidazo[5.1-a]-beta-carboline derivatives, method for their preparation, and their application as a drug” (MACEF, priority 2001, dated 2007).

Assays:
[1] = system: Beagle dogs; assay: Polysomnographic study in the dog (EEG, 4 hours after oral gelule); assay type: in vivo; details: for Latency: Paradoxal (REM) sleep / Latency: Slow wave sleep (SWS) / Latency: Somnolence / Time passed at stage: Alertness / Time passed at stage: REM / Time passed at stage: SWS / Time passed at stage: Somnolence: oral gelule; for Time passed at stage: Alertness / Time passed at stage: REM / Time passed at stage: SWS / Time passed at stage: Somnolence: four hours of monitoring
Method: (§1) The dihydroimidazo[5,1-a]-β-carboline derivatives of the invention, in particular those in the form of the methyl sulfonate, (soluble), were tested in chicks, and certain compounds that were active in the chick were administered in single doses to six Beagle dogs of both sexes for a polysomnographic study of at least 4 hours duration.
Polysomnographic tests were carried out for each of the three products from the series, on 6 dogs of both sexes, adults from the certified breeding kennels at HARLAN, 03 Gannat, using stainless steel electrodes surgically implanted for the duration of the test in contact with the frontal bones through the sinus, facing the motor regions of the encephalus. The Nishino et al method adapted by Tafani, Valin et al has been described elsewhere. It comprised recording two traces for eye movements, one trace for muscular movements (concentric electrode in the nape muscles) and two electroencephalographic (EEG) traces. The digital EEG trace was recorded using a Nicollet Schwarzer polygraph or the like (DELTAMED Coherence 2 and 3, MEI Galileo NT) for 4 hours after administering a 00 gelule containing 0, 16 or 48 mg of the test product (i.e. a mean of 0,1 and 3 mg/kg of live weight).
Each dog was monitored for 4 hours twice a day over two days, morning and afternoon, after one week's acclimatization to the monitoring cage, a 1 m^2, 80 cm high stainless steel cage of the SHOR-LINE type. For each dog, monitoring always commenced at the same time. A meal was distributed 30 minutes before starting monitoring.
The polysomnographic traces could differentiate between at least 4 stages for each consecutive 30 second period: awake, somnolence, slow sleep and paradoxal sleep. The latency of the appearance of each of the first nonalert episodes and the duration of each of the stages per 2 hour period were recorded for each dog. Comparing the means allowed the effect of the test products on the sleep microstructure to be studied.

[2] = system: JA 657 chicks; assay: Chick sleep/sedation test (IM injection, 90 minute observation); assay type: in vivo; details: for Sed (sedation time as % of the period) / TA (time to torpor between injection and first stage of sleep) / TS (duration of the first sleep) / Tsed (total sedation time over the period): 90 min observation; for TS (mins) Placebo diff'ce: extension of first sleep compared with test controls
Method: as §1
JA 657 chicks from Couvoir Gauguet, 44 Le Pin, were accustomed for at least 6 days to an alternating program of light and darkness with 12 hours of daylight and 12 hours of darkness at a regulated temperature of 25±2° C. They were fed ad libitum and were placed under test compounds in a vivarium in groups of 3 individuals with a mean weight of 100±10 g on the day of the test. At that age in this species, there is no effective meningeal (hemato-encephalic) barrier. The test products were injected in 3 doses (1, 3 and 10 mg/kg) intramuscularly (IM) in solution or in an aqueous suspension (1 drop of Tween 80 per ml), each to two batches of 3 chicks which were observed over 90 minutes. For each test series (18 vivaria), there was at least one batch of negative control chicks receiving the same volume (0.2 ml IM) of water for injectable preparations.
During the 90 minute observation period, the chicks were strongly stimulated every 15 minutes by presenting a full feeding trough, and each 5 minute period was given a grade from among the following 5 states, corresponding to the state of alertness over that period:
Mobile, sitting alert, drowsy, asleep, sleep-like state. The parameters studied were the time to torpor (TA) passed between injection and the first stage of sleep, the duration of the first sleep (TS) and the total sedation time over the period (Tsed), expressed in minutes and as a % of the period (Sed).
To compare the results of tests carried out at different dates, the extension of the duration of the first sleep TS compared with the test controls was recorded.

Question: For CS(=O)(=O)O.Cc1ncc2n1CCc1c-2[nH]c2ccc(Cl)cc12 [Example 13, 8-chloro-3-methyl-5,6-dihydroimidazo[5,1-a]-β-carboline methane sulfonate], which “Latency: Paradoxal (REM) sleep” value ([1]; 1 mg) is on record?
Answer: The value was 63 ± 28.2 min.

Question: And the “Latency: Slow wave sleep (SWS)” value ([1]; 1 mg)?
Answer: Its value is 32 ± 11.5 min.

Question: And the “Latency: Somnolence” value ([1]; 1 mg)?
Answer: Its value is 25 ± 11.6 min.

Question: What about the “Time passed at stage: Alertness” value ([1]; 1 mg) of the same compound?
Answer: The value was 135 ± 44.3 min.

Question: And the “Time passed at stage: REM” value ([1]; 1 mg)?
Answer: The value was 21 ± 13.6 min.

Question: And the “Time passed at stage: SWS” value ([1]; 1 mg)?
Answer: Its value is 57 ± 26.5 min.

Question: What about the “Time passed at stage: Somnolence” value ([1]; 1 mg) of the same compound?
Answer: Its value is 24 ± 2.6 min.

Question: What about the “Latency: Paradoxal (REM) sleep” value ([1]; 3 mg) of the same compound?
Answer: The value was 56 ± 19.5 min.

Question: What about the “Latency: Slow wave sleep (SWS)” value ([1]; 3 mg) of the same compound?
Answer: Its value is 35 ± 11 min.

Question: What about the “Latency: Somnolence” value ([1]; 3 mg) of the same compound?
Answer: Its value is 27 ± 9.1 min.

Question: And the “Time passed at stage: Alertness” value ([1]; 3 mg)?
Answer: Its value is 122 ± 36.5 min.

Question: And the “Time passed at stage: REM” value ([1]; 3 mg)?
Answer: The value was 26 ± 13.5 min.

Question: And the “Time passed at stage: SWS” value ([1]; 3 mg)?
Answer: Its value is 61 ± 24.9 min.

Question: What about the “Time passed at stage: Somnolence” value ([1]; 3 mg) of the same compound?
Answer: Its value is 31 ± 7 min.

Question: What about the “Sed (sedation time as % of the period)” value ([2]; Dose: 1 mg/kg) of the same compound?
Answer: The value was 57.8%.

Question: What about the “TA (time to torpor between injection and first stage of sleep)” value ([2]; Dose: 1 mg/kg) of the same compound?
Answer: Its value is 16.5 min.

Question: What about the “TS (duration of the first sleep)” value ([2]; Dose: 1 mg/kg) of the same compound?
Answer: Its value is 33.5 min.

Question: And the “Tsed (total sedation time over the period)” value ([2]; Dose: 1 mg/kg)?
Answer: The value was 52 min.

Question: And the “TS (mins) Placebo diff'ce” value ([2]; Dose: 1 mg/kg)?
Answer: Its value is 33 min.

Question: And the “Sed (sedation time as % of the period)” value ([2]; Dose: 3 mg/kg)?
Answer: The value was 81.1%.

Question: What about the “TA (time to torpor between injection and first stage of sleep)” value ([2]; Dose: 3 mg/kg) of the same compound?
Answer: The value was 9.5 min.

Question: What about the “TS (duration of the first sleep)” value ([2]; Dose: 3 mg/kg) of the same compound?
Answer: Its value is 73 min.

Question: And the “Tsed (total sedation time over the period)” value ([2]; Dose: 3 mg/kg)?
Answer: Its value is 73 min.

Question: And the “TS (mins) Placebo diff'ce” value ([2]; Dose: 3 mg/kg)?
Answer: Its value is 73 min.

Question: What about the “Sed (sedation time as % of the period)” value ([2]; Dose: 10 mg/kg) of the same compound?
Answer: The value was 95.6%.

Question: What about the “TA (time to torpor between injection and first stage of sleep)” value ([2]; Dose: 10 mg/kg) of the same compound?
Answer: The value was 4 min.

Question: What about the “TS (duration of the first sleep)” value ([2]; Dose: 10 mg/kg) of the same compound?
Answer: The value was 86 min.

Question: And the “Tsed (total sedation time over the period)” value ([2]; Dose: 10 mg/kg)?
Answer: Its value is 86 min.

Question: And the “TS (mins) Placebo diff'ce” value ([2]; Dose: 10 mg/kg)?
Answer: The value was 85.7 min.

Question: What does the source list for CS(=O)(=O)O.Cc1ncc2n1CCc1c-2n(C)c2ccccc12 [Example 1, 3,11-dimethyl-5,6-dihydroimidazo[5,1-a]-β-carboline methane sulfonate]?
Answer: latency of the first somnolence (in words) ([1]; 1 and 3 mg/kg, versus placebo): clearer in the 3 mg/kg dose; Latency: Paradoxal (REM) sleep ([1]; 1 mg): 101 ± 80.3 min; Latency: Slow wave sleep (SWS) ([1]; 1 mg): 52 ± 24.8 min; Latency: Somnolence ([1]; 1 mg): 47 ± 19.1 min; Time passed at stage: Alertness ([1]; 1 mg): 139 ± 69.1 min; Time passed at stage: REM ([1]; 1 mg): 23 ± 19.1 min; Time passed at stage: SWS ([1]; 1 mg): 51 ± 42.3 min; Time passed at stage: Somnolence ([1]; 1 mg): 27 ± 10.4 min; Latency: Paradoxal (REM) sleep ([1]; 3 mg): 50 ± 22.2 min; Latency: Slow wave sleep (SWS) ([1]; 3 mg): 27 ± 8.0 min; Latency: Somnolence ([1]; 3 mg): 21 ± 7.1 min; Time passed at stage: Alertness ([1]; 3 mg): 106 ± 34.7 min; Time passed at stage: REM ([1]; 3 mg): 29 ± 13.7 min; Time passed at stage: SWS ([1]; 3 mg): 65 ± 30.2 min; Time passed at stage: Somnolence ([1]; 3 mg): 40 ± 10.9 min; Sed (sedation time as % of the period) ([2]; Dose: 1 mg/kg): 71.7%; TA (time to torpor between injection and first stage of sleep) ([2]; Dose: 1 mg/kg): 7 min; TS (duration of the first sleep) ([2]; Dose: 1 mg/kg): 56.5 min; Tsed (total sedation time over the period) ([2]; Dose: 1 mg/kg): 64.5 min; TS (mins) Placebo diff'ce ([2]; Dose: 1 mg/kg): 56 min; Sed (sedation time as % of the period) ([2]; Dose: 3 mg/kg): 87.2%; TA (time to torpor between injection and first stage of sleep) ([2]; Dose: 3 mg/kg): 4.5 min; TS (duration of the first sleep) ([2]; Dose: 3 mg/kg): 78.5 min; Tsed (total sedation time over the period) ([2]; Dose: 3 mg/kg): 78.5 min; TS (mins) Placebo diff'ce ([2]; Dose: 3 mg/kg): 78 min; Sed (sedation time as % of the period) ([2]; Dose: 10 mg/kg): 96.7%; TA (time to torpor between injection and first stage of sleep) ([2]; Dose: 10 mg/kg): 1 min; TS (duration of the first sleep) ([2]; Dose: 10 mg/kg): 86 min; Tsed (total sedation time over the period) ([2]; Dose: 10 mg/kg): 87 min; TS (mins) Placebo diff'ce ([2]; Dose: 10 mg/kg): 85.7 min
